Assay results taken from publication PMC12598851, “Exploiting Avidity Effects for the Discovery of Low Affinity Protein-Binding Fragments” (Journal of Medicinal Chemistry, 2025).
Several values for one entry are separate records, joined by “and”; a condition that tells them apart may be missing. Identical values can stand only once. Entries after “also recorded” stand apart in the source; their conditions may differ. Like-named read-outs stand apart in the source and are kept apart here. Values belong to the compound of their own block, whether it stands above or below them.

Experiments:
[1] = molecular target: T1, Rpn2-binding surface of Rpn13 (GST-Rpn13 PRU) (Homo sapiens, UniProt Q16186); assay: Competition assay with Rpn2 peptide for GST-Rpn13 PRU fusion protein; details: protein preincubated with Rpn2 peptide 100 μM
T1 construct: the human Rpn13 PRU (pleckstrin-like receptor for ubiquitin) domain is linked to the C-terminus of GST; His6 (C); made in house; host or cells: E. coli BL21 (DE3) codon plus RP
T1 sequence (Q16186 18-131 limits assumed): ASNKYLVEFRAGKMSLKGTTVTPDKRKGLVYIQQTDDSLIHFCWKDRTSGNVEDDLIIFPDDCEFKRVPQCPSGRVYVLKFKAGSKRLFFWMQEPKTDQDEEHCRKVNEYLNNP
Protocol: As mentioned above, the Rpn13 PRU domain binds to the proteasome via association with a C-terminal peptide tail from Rpn2. […] The amount of protein retained on the resin was then evaluated using the same protocol described above.
This assay was conducted following the exact same procedure described above using two samples: GST-Rpn13 PRU (100 nM) alone, and GST-Rpn13 PRU (100 nM) that had been pretreated with Rpn2 peptide (100 μM) for 1 h at 4 °C. Each sample was added to separate wells of a microtiter plate.

[2] = molecular target: T2, GST-Rpn13 PRU fusion protein (UniProt P08515+Q16186); assay: Bead-displayed fragment screen against GST-Rpn13 PRU fusion protein; type: binding, human; details: GST-Rpn13 PRU 500 nM, A647 anti-FLAG antibody staining
T2 construct: the human Rpn13 PRU (pleckstrin-like receptor for ubiquitin) domain is linked to the C-terminus of GST; His6 (C); made in house; host or cells: E. coli BL21 (DE3) codon plus RP
T2 sequence (P08515+Q16186 fused): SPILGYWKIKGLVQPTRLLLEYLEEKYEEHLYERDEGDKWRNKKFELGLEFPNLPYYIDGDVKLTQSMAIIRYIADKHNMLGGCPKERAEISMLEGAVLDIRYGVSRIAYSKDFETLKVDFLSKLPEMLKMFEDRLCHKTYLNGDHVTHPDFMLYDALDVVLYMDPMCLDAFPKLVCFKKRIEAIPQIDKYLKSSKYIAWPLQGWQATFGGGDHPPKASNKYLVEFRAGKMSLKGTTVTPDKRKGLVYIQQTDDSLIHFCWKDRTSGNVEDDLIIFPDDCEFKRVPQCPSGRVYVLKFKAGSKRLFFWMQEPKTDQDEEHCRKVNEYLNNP
Protocol: The beads (one compound per well) were then incubated with GST-Rpn13 PRU fusion protein (500 nM) and, after washing, the amount of protein retained on the beads was measured after staining with Alexafluor-647 (A647)-labeled anti-FLAG antibody using a plate reader (Figure a). […] Next a competition experiment was performed in which the GST-Rpn13 PRU fusion protein was preincubated with excess glutathione (1 mM) to determine if the fragments, to some extent, engage the peptide-binding site of GST. […] We speculate that A8 and A88 probably bind to both GST and Rpn13, explaining the high signal in the original screen (Figure b). Finally, all five hit-displaying beads were incubated with only Alexa Fluor 647–labeled anti-FLAG antibody to confirm that the hits are not antibody binders (Figure S11).
General notes: • At each step, contents were mixed by pipetting up and down 3–5 times. • All steps following the addition of Alexa Fluor 647 anti-FLAG Tag Antibody were conducted in the dark. • Alexa Fluor 647 anti-FLAG Tag Antibody was purchased from commercial sources; (BioLengend cat #637316). […]
Each sample was transferred to a black 384-well plate in triplicate (3 × 20 μL per well). […] Fluorescence intensity was measured using a TECAN plate reader. Background fluorescence (from blank wells) was subtracted before further data analysis.

Rpn13 PRU = molecular target: T3, Rpn13 PRU (Homo sapiens, UniProt Q16186); assay: SPR, soluble compound binding to biotinylated Rpn13 PRU captured on SA chip
T3 construct: FLAG (N); His10 (C); made in house; host or cells: E. coli BL21 (DE3) codon plus RP
T3 sequence (Q16186 18-131 limits assumed): as the sequence (Q16186 18-131 limits assumed) above
Protocol: 4000–5000 Ru of Biotinylated Rpn13-PRU (50 μg/mL in running buffer (20 mM phosphate buffer with 2.7 mM KCl, 137 mM NaCl, 0.05% Surfactant P20, 1 mM DTT and 1 mM EDTA)) was captured on a SA sensor chip (Cytiva). Testing compounds were evaluated using the multiple-cycle kinetic/affinity method in running buffer with indicated association and dissociation time, and a flow rate of 40 μL/min. Data was analyzed with the BIAcore Insight Evaluation Software and the binding affinities were obtained by fitting the sensor grams to the 1:1 binding kinetics, steady-state affinity models or steady-state affinity model with constant R max.

SA-647 = molecular target: T4, SA-647 (Streptomyces avidinii, UniProt P22629); assay: Dose-dependent binding of SA-647 to bead-displayed ligands by FACS (MFI); details: SA-647 0.1 to 1000 nM
T4 construct: purchased ThermoFisher S3235
T4 sequence (P22629 37-163 limits assumed): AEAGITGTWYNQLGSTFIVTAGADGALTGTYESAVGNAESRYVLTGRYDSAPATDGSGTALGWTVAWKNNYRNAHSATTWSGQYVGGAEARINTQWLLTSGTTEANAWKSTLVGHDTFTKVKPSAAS
Protocol: We next asked if the bead binding assay could distinguish complexes with different affinities for SA. 10 μm TentaGel beads displaying compound 2, compound 3, the oxazole analogue of compound 2 (Figure S4), or the SA-binding macrocycle 1 shown in Figure a were exposed to different concentrations of SA-647 ranging from 0.1 to 1000 nM. After washing, the intensity of fluorescence retained on the beads was measured using a flow cytometer, and the results were plotted as the mean fluorescence intensity (MFI) on the beads vs the protein concentration. […] Macrocycle 1, which binds SA with a K D of about 600 nM in solution (more than 1000 times more tightly than compound 2), binds SA-647 on resin at far lower concentrations than does compound 2.

SA [3] = assay: Affinity of macrocycle 1 for SA in solution; type: binding; details: KD in solution against KD of compound 2
SA [4] = details: in solution; cited from earlier work
[5] = tested on: monomeric streptavidin (mSA-647); assay: Bead pull-down with monomeric streptavidin; type: binding; details: mSA-647 500 nM, 1 h, PBST, room temperature
Protocol: To investigate this, compound 2-displaying, compound 3-displaying, or blank (acetylated) beads were incubated with tetrameric SA-647 or iFluor647-conjugated monomeric streptavidin (mSA-647). Biotin-displaying beads (Figure S3) were also included in this experiment as a high-affinity comparator. […] No binding of either protein to compound 3-displaying beads was observed.
3 Stable binding of tetrameric SA to beads displaying compound 2 is highly dependent on avidity. […] Each compound was represented by 1 million 10 μm TentaGel beads, with 250,000 beads used per technical replicate. (b) Effect of ligand functionalization density on compound binding. Beads were functionalized with compound 2, compound 3, or biotin at varying surface densities (100% to 5%) and incubated with SA-647 (500 nM) for 1 h in PBST at room temperature as previously, before recording the fluorescence intensity.
(§1) General notes: • At each step, contents were mixed by pipetting up and down 3–5 times. • All steps following the addition of SA-647 were conducted in the dark. • SA-647 and mSA-647 were purchased from commercial sources; (SA-647: ThermoFisher cat#S3235, mSA-647: Millipore SAE178).

Streptavidin (SA) = molecular target: T5, Streptavidin (SA) (Streptomyces avidinii, UniProt P22629); assay: SPR, soluble compound binding to immobilized streptavidin
T5 construct: purchased
Protocol: The SPR binding affinity testing was conducted using the BIAcore 1K system (Cytiva) with BIAcore Insight Control Software. Streptavidin (50 μg/mL in 10 mM pH 5.0 NaOAc) was immobilized on a CM5 sensor chip (Cytiva) via amide coupling, using HBS-EP+ (10 mM HEPES, 150 mM NaCl, 3 mM EDTA, and 0.05% v/v Surfactant P20) as the immobilization buffer. Approximately 1000 RU of immobilization was achieved. Testing compounds were evaluated using the multiple-cycle kinetic/affinity method in PBS-P+ running buffer (20 mM phosphate buffer, 2.7 mM KCl, 137 mM NaCl, and 0.05% Surfactant P20), with a 200 s association time, 200 s dissociation time, and a flow rate of 45 μL/min. Binding affinities for the testing compounds were determined by fitting the sensor grams to both the 1:1 binding kinetics and steady-state affinity models provided in the BIAcore Insight Evaluation Software.

[6] = molecular target: T6, tetrameric streptavidin (SA-647) (Streptomyces avidinii, UniProt P22629); assay: Bead pull-down: SA-647 retained by compound-displaying TentaGel beads, plate reader; type: binding; details: SA-647 500 nM
T6 construct: purchased ThermoFisher S3235
T6 sequence (P22629 37-163 limits assumed): as above
Text: Compounds 2 and 3 were then constructed on 10 μm TentaGel beads via straightforward solid-phase synthesis, along with acetylated beads, which as a “blank” (Figure c). TentaGel beads consist of an amino-polystyrene core onto which is grafted a thick layer of amine-terminated PEG chains. An additional mini-PEG spacer was incorporated prior to coupling the compounds to further improve spatial accessibility and aqueous display of the compounds (see Experimental Section for detailed synthesis). The beads were incubated with AlexaFluor 647-conjugated SA (SA-647) in phosphate-buffered saline supplemented with 0.05% Tween 20 (PBST) for 1 h at room temperature in the dark. Following incubation, the beads were washed thoroughly (see Experimental Section for a detailed protocol), then resuspended in PBST. The amount of fluorescent SA retained by the resin was analyzed using a Tecan multiwell plate reader equipped with appropriate excitation and emission filters (excitation at 650 nm, emission at 665 nm).
as §1
A 96-well Multiscreen hydrophilic assay plate (MilliporeSigma, MSBVN12) was activated by treating each well with 150 μL of 70% (v/v) ethanol in water. The solvent was removed under vacuum, and the wells were washed with PBST (3 × 150 μL). Fresh PBST (150 μL) was then added to each well.
The plate was drained and washed again with PBST (3 × 150 μL), followed by the addition of 150 μL PBST per well. Plates were shaken overnight at ambient temperature on an orbital plate shaker.
The next day, wells were drained and incubated with 150 μL of a 1:1 (v/v) solution of PBST:PBS blocking buffer (Thermo Scientific, 37538) for 1 h at room temperature. After removal of the blocking buffer, 100 μL PBST was added to each well and mixed thoroughly. A 20 μL aliquot from each well was transferred to a black 384-well flat-bottom plate (Corning, 3820) for background (blank) measurements.
The remaining PBST was removed, and the beads were incubated with SA-647 (500 nM in 1:1 PBST/blocking buffer, 150 μL per well) for 1 h at room temperature. After incubation, wells were washed with PBST while shaking (3 × 20 min). A final 150 μL PBST wash was performed and drained. Fresh PBST (80 μL) was added to each well, and the contents were transferred to labeled PCR tubes. Samples were briefly vortexed and mixed by pipetting.
Each sample was transferred to a black 384-well plate in triplicate (3 × 20 μL per well). The plate was sealed with a foil sticker and centrifuged at 250g for 1 min. Fluorescence intensity was measured using a TECAN plate reader. Background fluorescence (from blank wells) was subtracted prior to further data analysis.

[7] = molecular target: T6, tetrameric streptavidin (SA-647); assay: as above; type: binding; details: SA-647 (100 nM), plate reader
[8] = soluble mini-PEG attached compound, immobilized SA, read-out: KD (SPR)

SMILES: NC(=O)CNC(=O)COCCOCCNC(=O)CNC(=O)c1ccc2nc(-c3ccncc3)[nH]c2c1 [A63]
effect of soluble Rpn2 peptide competitor on binding of GST-Rpn13 PRU [1]: strongly suppressed binding
fluorescence intensity in GST-Rpn13 PRU screen [2]: above-background fluorescence
KD (SPR) (Rpn13 PRU; soluble compound, biotinylated Rpn13 PRU immobilized on SA chip): A similar result
Kd (Rpn13 PRU; supplementary CSV, solution dissociation constants, read-out: KD for Rpn13 PRU): > 2000 µM

SMILES: NC(=O)CNC(=O)COCCOCCNC(=O)CNC(=O)c1cnc2[nH]ccc2c1 [A85]
effect of soluble Rpn2 peptide competitor on binding of GST-Rpn13 PRU [1]: strongly suppressed binding
fluorescence intensity in GST-Rpn13 PRU screen [2]: above-background fluorescence
Kd (Rpn13 PRU; soluble compound, biotinylated Rpn13 PRU immobilized on SA chip, read-out: KD (SPR)): > 2000 µM

SMILES: NC(=O)[C@H]1CSCc2cccc(c2)C(=O)N(Cc2cccnc2)Cc2nc(cs2)C(=O)N(Cc2ccc(F)c(F)c2)Cc2nc(co2)C(=O)N1 [Compound 1]
dose-dependent binding of SA-647 (MFI by flow cytometer) (SA-647): dose-dependent binding
tighter binding to SA than compound 2 (SA [3]): more than 1000 times
Kd (SA [4]): ~0.6 µM

SMILES: CC(=O)N(Cc1ccccc1)Cc1nc(C(=O)N(C)CC(=O)NCCOCCOCC(=O)NCC(N)=O)cs1 [Compound 3]
binding of mSA-647 to bead-displayed ligand [5]: No binding
dose-dependent binding of SA-647 (MFI by flow cytometer) (SA-647): not
binding to SA by SPR (in words) (Streptavidin (SA); soluble compound, immobilized SA): no detectable binding
Fluorescence intensity, Average ([6]; 12 replicates, after background subtraction, Z' calculation): 177
binding of SA-647 to bead-displayed compound (fluorescence) ([6]; 1 h, PBST, room temperature, after washing): failed to retain more labeled SA than the acetylated “blank” beads; also recorded: No binding
Fluorescence intensity, individual replicate ([6]; replicates 1-12, after background subtraction, Z' calculation): 76 and 119 and 260 and 226 and 50 and 156 and 122 and 81 and 136 and 180 and 145 and 568

SMILES: CN(CC(=O)NCCOCCOCC(=O)NCC(N)=O)C(=O)c1csc(CN(Cc2cccnc2)C(=O)C2CCC(=O)C2)n1 (centres unmarked) [Compound 4]
SA-647 retained by bead-displayed grown compound relative to parent compound 2 [7]: retained the most SA-647
improvement of KD over the parent compound 2 (Streptavidin (SA); SPR, immobilized SA): 7.8 fold
Kd (Streptavidin (SA); [8]): 90 µM

Kd (Streptavidin (SA); supplementary CSV, solution dissociation constants, read-out: KD for SA): 160 µM
SMILES: CN(CC(=O)NCCOCCOCC(=O)NCC(N)=O)C(=O)c1csc(CN(Cc2cccnc2)C(=O)c2ccc(F)c(C#N)c2)n1 [Compound 5]

SMILES: CN(CC(=O)NCCOCCOCC(=O)NCC(N)=O)C(=O)c1csc(CN(Cc2cccnc2)C(=O)c2ccc(F)c(F)c2)n1 [Compound 6]
SA-647 retained by bead-displayed grown compound relative to parent compound 2 [7]: captured less SA-647 than bead-displayed 4 but more than bead-displayed 2
Kd (Streptavidin (SA); [8]): 330 µM

SMILES: CN(CC(=O)NCCOCCOCC(=O)NCC(N)=O)C(=O)c1csc(CN(Cc2cccnc2)C(=O)c2ccc3[nH]ccc3c2)n1 [Compound 7]
SA-647 retained by bead-displayed grown compound relative to parent compound 2 [7]: retained less SA-647 than compound 2
Kd (Streptavidin (SA); [8]): 780 µM

SMILES: O=C(O)CCCC[C@@H]1SC[C@@H]2NC(=O)N[C@@H]21 [biotin, reference compound]
binding of mSA-647 to bead-displayed ligand [5]: readily observable
dependence of SA-647 retention on ligand density ([6]; site functionalization 100% to 5%): insensitive to ligand density
